Series [1] is described as follows: PAMPA gastrointestinal tract permeability. Type of series: in vitro ADME. Conditions: for Papp at 8 h, 0.5 mM: PAMPA-GI, read-out: GI Pe. As for the experimental part: A 10 mM solution of each compound in DMSO was prepared and subsequently homogenized in a 5 mL flask with 4.75 mL PBS (pH 6.6) (10 mM). […] 180 μL of a PBS (pH 7.4)/DMSO (95:5) solution were then added to the wells of a 96-well receiver plate, and 5 μL of a L-α-phosphatidylcholine solution (20 mg/mL in dodecane) to the wells of a 96-well donor plate. After 5 min, 180 μL of the solutions containing each compound were added to the wells of the donor plate, in triplicate, and the donor plate was carefully placed over the receiver plate in a “sandwich-like” system, which was left stirring (50 rpm) for 8 h at rt in a sealed vessel containing 10 mL PBS (pH 7.4). Afterward, the donor plate was removed, and the content of the receiver plate was transferred to a UV reading plate, which was read using a microplate reader (SpectraMax 5 – Molecular Devices). A reference sample for the internal correction of the microplate reader was prepared using 180 μL of the PBS (pH 7.4)/DMSO (95:5) solution (adapted from refs and ). The optical density values obtained from the content of the receiver plate were compared with the ones obtained from readings performed with the initial solutions containing each compound, before their addition to the donor plate. […] The optical density values from the receptor plate were compared to those from experimental controls to determine the F a value for each compound, using Microsoft Excel.
(In PAMPA a lipid-coated filter parts donor from acceptor wells.)

The test system of another series is L. infantum GSK-3B. As to the kind of experiment: GSK-3B enzyme inhibition (LANCE TR-FRET). In kind it is biochemical. The conditions noted are these: concentrations up to 30 μM, 10 nM enzyme. As for the experimental part: The following controls were included: protein in 1% DMSO (100% activity), 10 μM AZD-5438 (0% activity), and buffer without enzyme (blank).
To detect the progress of the enzymatic reaction, a commercially available TR-FRET-based assay (LANCE TR-FRET, PerkinElmer) was used. In the enzymatic step, purified protein kinase and the peptide substrate were incubated with compounds 1 – 6 for 30 min at 25 °C before the addition of ATP to start the reaction, which was run at 30 °C (2 h for GSK-3A or 1 h 15 min for GSK-3B). […]. […]
The fluorescence signal was measured using a CLARIOstar microplate reader (BMG LABTECH) set with an excitation wavelength of 320 nm and an emission wavelength of 665 nm. MARS software (BMG LABTECH) was used to analyze the data obtained after reading each plate. The background fluorescence signal (blank) was subtracted from the fluorescence signal obtained for each reaction, in order to reflect the specific signal of enzymatic activity. The data was then analyzed with the GraphPad Prism v10 software, using the equation “log(inhibitor) vs response - variable slope (four parameters) - Y = Bottom + (Top-Bottom)/(1 + 10̂((LogIC50-X)* HillSlope))” to obtain dose–response curves and determine IC50 values. […]
On the technique in general: In TR-FRET formats the signal depends on donor and acceptor labels being close together.

The test system of another series is L. infantum. As to the kind of experiment: Antileishmanial activity against L. infantum amastigotes in THP-1 macrophages. The conditions noted are these: Leishmania infantum; growth of L. infantum in THP-1 macrophages, 72 h. In kind it is cell-based. As for the experimental part:
The in vitro anti-L. infantum activity (IC50) of each compound was evaluated on THP-1 cells (human leukemia monocytic cell line) infected with L. infantum promastigotes, and the in vitro cytotoxicity (CC50) was determined over the THP-1 cell line. The selectivity index (SI) was calculated as the ratio of the CC50 value determined in the cytotoxicity assay, divided by the IC50 value determined in the antileishmanial activity assay.
Cells derived from the human monocytic strain THP-1 were cultured in complete Rowell Park Memorial Institute (RPMI)-1640 medium (supplemented with 10% fetal bovine serum, 100 U/mL penicillin, and 100 μg/mL streptomycin). Monocytes were differentiated into macrophages by the addition of 20 ng/mL phorbol myristate acetate (PMA). After 72 h, the macrophages (5 × 10^4), in black 96-well microtiter plates (Corning Incorporated, Corning, NY), were infected with Leishmania (Leishmania) infantum (MHOM/BR/1974/PP75) promastigotes transfected with gene tdTomato, on the second day of the stationary phase (20 parasites per macrophage) for 4 h. […] The IC50 values were determined by nonlinear regression using a variable slope model (log(concentration) vs growth inhibition) with the GraphPadPrism v8.2.0 (CA, USA) software. Controls with uninfected cells, untreated infected cells, and infected cells treated with amphotericin B at 0.25 μM (positive control) or DMSO 1% were used. Quadruplicates were run on the same plate, and the experiments were repeated at least once.

The test system of series [2] is L. infantum promastigotes. As to the kind of experiment: Flow cytometric cell cycle analysis (PI). In kind it is cell-based, Leishmania infantum. The conditions noted are these: 24 h, 0.5x, 1x, 2x IC50, PI. As for the experimental part: Then, the cells were collected, washed twice with 1 × PBS, and fixed in 70% ethanol at 4 °C for 24 h. The fixed parasites were then washed with 1 × PBS and the pellet was treated with 500 μL of RNase A (20 mg/mL) and incubated at 37 °C for 1 h. Subsequently, the parasites were stained with 10 μg/mL propidium iodide (PI) in the dark for 20 min. Cell cycle distribution, determining the percentage of cells in G0, G1, S, and G2/M phases, was analyzed using an Accuri C5 BD flow cytometer. The histograms presented are representative of results obtained from three independent experiments.
Background: Flow cytometry measures light scatter and fluorescence of single cells or particles in a stream.

The subject of series [3] is L. infantum promastigotes. As to the kind of experiment: Antileishmanial activity against promastigotes (MTS). In kind it is cell-based. The conditions noted are these: Leishmania infantum, 72 h. As for the experimental part: L. infantum promastigotes (MHOM/MA/67/ITMAP-263) were cultured in complete Schneider medium (SigmaAldrich, St. Louis, MO, USA), which consisted of Schneider medium plus 10% heat-inactivated fetal bovine serum (FBS, SigmaAldrich) pH 7.4, at 24 °C. The L. infantum promastigotes were plated at a concentration of 10^5 parasites/mL, and 2 was added at concentrations of 64, 32, 16, 8, 4, 2, 1, 0.5, 0.25, and 0.125 μM. The cells were cultured for 72 h and, after the incubation time, cell proliferation was measured by colorimetric MTS assay. The cells in each well were stained with 20 μL of MTS (Promega, G3580) for 3 h, and the OD at 490 nm was determined with a microplate reader. All experiments were independently repeated at least three times.

As for `O=C(c1ccc(O)c(Cl)c1)N1CCN(c2cnccn2)CC1` [Compound 1, (3-Chloro-4-hydroxyphenyl)(4-(pyrazin-2-yl)piperazin-1-yl)methanone], in series [1], the “Fa, fraction absorbed (GI)” value worked out at 99.26% and the Papp at 8 h, 0.5 mM was 12.9 ×10⁻⁶ cm/s. Besides, the “inhibition of L. infantum GSK-3B” value in the series with L. infantum GSK-3B is given as “did not exert any inhibition”. Besides, 11.9 ± 2.2 µM corresponded to half-maximal inhibition with L. infantum (IC50).
As to `O=C(c1ccc(O)cc1)N1CCN(c2cnccn2)CC1` [Compound 2, (4-Hydroxyphenyl)(4-(pyrazin-2-yl)piperazin-1-yl)methanone], in series [1], the “Fa, fraction absorbed (GI)” value turned out to be 62.71% and the Papp at 8 h, 0.5 mM came to 2.59 ×10⁻⁶ cm/s. For the same compound, in series [2], the “effect on cell cycle progression” value was “G0/G1 phase cell cycle arrest”. Moreover, the “inhibition of L. infantum GSK-3B” value with L. infantum GSK-3B is “no inhibitory effect”. Inhibition in series [3] was half-maximal at 7.93 µM (IC50). In addition, the IC50 (commonly the point on the concentration scale where inhibition reaches its midpoint) in the series on L. infantum was 3.1 ± 1.3 µM.

Values taken from PMC12384620, “Hit-to-Lead Studies of Pyrazinylpiperazines against Visceral Leishmaniasis: Pharmacokinetic Profile and In Vivo Efficacy of Potent Compounds against Leishmania infantum” (ACS Pharmacology & Translational Science, 2025).
